Patent US8952024B2, “Herbicidal pyrimidone derivatives” (E I du Pont de Nemours and Company, priority 2009, dated 2015)

How the values were obtained:
Assay type in all cases: in vivo
[1] = system: barnyardgrass (Echinochloa crus-galli); assay: Test A pre-/postemergence plant response
Procedure, shortened: (§1)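 Greenhouse pots of loam/sand received directed preemergence soil sprays or postemergence sprays (plants 2–10 cm, 1–2 leaf stage), compounds formulated in non-phytotoxic solvent with surfactant. Injury was rated visually versus untreated controls after about ten days on a 0 (no effect) to 100 (complete control) scale.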

[2] = system: corn (Zea mays); assay: Test A pre-/postemergence plant response
Procedure, shortened: as §1

[3] = system: giant foxtail (Setaria faberii); assay: Test A pre-/postemergence plant response
Procedure, shortened: as §1

[4] = system: large crabgrass (Digitaria sanguinalis); assay: Test A pre-/postemergence plant response
Procedure, shortened: as §1

[5] = system: morningglory (Ipomoea spp.); assay: Test A pre-/postemergence plant response
Procedure, shortened: as §1

[6] = system: pigweed (Amaranthus retroflexus); assay: Test A pre-/postemergence plant response
Procedure, shortened: as §1

[7] = system: wheat (Triticum aestivum); assay: Test A pre-/postemergence plant response
Procedure, shortened: as §1

[8] = system: velvetleaf (Abutilon theophrasti); assay: Test A pre-/postemergence plant response
Procedure, shortened: as §1

[9] = system: barnyardgrass (Echinochloa crus-galli); assay: Test B flooded paddy test; settings: for Plant response rating, Flood, Barnyardgrass: 250 g ai/ha, flooded paddy test, visual rating on 0 to 100 scale (0 no effect, 100 complete control) after 13 to 15 days; for Plant response rating, Barnyardgrass: Flood (flooded paddy test), 13 to 15 days
Procedure, shortened: (§2)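 Seedlings reaching 2 leaves are flooded 3 cm deep; test material is delivered to that water, which stays at the same depth. Plants remain in a greenhouse 13–15 days and are then scored by eye versus controls from 0 to 100.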

[10] = system: umbrella sedge (Cyperus difformis); assay: Test B flooded paddy test; settings: for Plant response rating, Flood, Sedge, Umbrella: 250 g ai/ha, flooded paddy test, visual rating on 0 to 100 scale (0 no effect, 100 complete control) after 13 to 15 days; for Plant response rating, Sedge, Umbrella: Flood (flooded paddy test), 13 to 15 days
Procedure, shortened: as §2

[11] = system: rice (Oryza sativa); assay: Test B flooded paddy test; settings: for Plant response rating, Flood, Rice: 250 g ai/ha, flooded paddy test, visual rating on 0 to 100 scale (0 no effect, 100 complete control) after 13 to 15 days; for Plant response rating, Rice: Flood (flooded paddy test), 13 to 15 days
Procedure, shortened: as §2

[12] = system: ducksalad (Heteranthera limosa); assay: Test B flooded paddy test; settings: for Plant response rating, Flood, Ducksalad: 250 g ai/ha, flooded paddy test, visual rating on 0 to 100 scale (0 no effect, 100 complete control) after 13 to 15 days; for Plant response rating, Ducksalad: Flood (flooded paddy test), 13 to 15 days
Procedure, shortened: as §2

[13] = Postemergence, 125 g ai/ha, visual injury, 0 to 100 scale (0 no effect, 100 complete control), approx. ten days
[14] = Postemergence, 500 g ai/ha, 0 to 100 scale, 0 = no effect, 100 = complete control, approx. ten days
[15] = Preemergence, 125 g ai/ha, 0 to 100 scale, 0 = no effect, 100 = complete control
[16] = Preemergence, 500 g ai/ha, visual injury, 0 to 100 scale (0 no effect, 100 complete control), approx. ten days
[17] = 62 g ai/ha, scale 0 to 100, 0 is no effect, 100 is complete control
[18] = Postemergence, 125 g ai/ha, 0 to 100 scale where 0 is no effect and 100 is complete control
[19] = Postemergence, 500 g ai/ha, visual injury, 0 to 100 scale (0 no effect, 100 complete control), approx. ten days
[20] = Preemergence, 500 g ai/ha, 0 to 100 scale, 0 = no effect, 100 = complete control
[21] = 62 g ai/ha, scale of 0 to 100 where 0 is no effect and 100 is complete control
[22] = 125 g ai/ha, scale 0 to 100, 0 is no effect, 100 is complete control
[23] = Flood, 31 g ai/ha, scale 0 to 100 (0 no effect, 100 complete control)

**Q.** With `Cc1cc(Cl)ccc1-n1c(-c2ccccc2)ncc(C(=O)C2=C(O)CCCC2=O)c1=O` [Compound 43] as the compound, how does the “Barnyardgrass plant response rating” value [1, 13] read?
**A.** The value was 70.

**Q.** What about the “Plant response rating, Barnyardgrass” value [1, 14] of the same compound?
**A.** Its value is 90.

**Q.** What about the “Plant response rating, Barnyardgrass” value [1, 15] of the same compound?
**A.** Its value is 10.

**Q.** What about the “Plant response rating, Barnyardgrass” value [1, 16] of the same compound?
**A.** Its value is 80.

**Q.** What about the “Corn plant response rating” value [2, 13] of the same compound?
**A.** The value was 0.

**Q.** And the “Plant response rating, Corn” value [2, 14]?
**A.** The value was 50.

**Q.** What about the “Plant response rating, Corn” value [2, 15] of the same compound?
**A.** The value was 0.

**Q.** What about the “Plant response rating, Corn” value [2, 16] of the same compound?
**A.** Its value is 0.

**Q.** And the “Foxtail, Giant plant response rating” value [3, 13]?
**A.** The value was 60.

**Q.** And the “Plant response rating, Foxtail, Giant” value [3, 14]?
**A.** Its value is 80.

**Q.** What about the “Plant response rating, Foxtail, Giant” value [3, 15] of the same compound?
**A.** The value was 10.

**Q.** What about the “Plant response rating, Foxtail, Giant” value [3, 16] of the same compound?
**A.** The value was 70.

**Q.** What about the “Crabgrass, Large plant response rating” value [4, 13] of the same compound?
**A.** Its value is 70.

**Q.** And the “Plant response rating, Crabgrass, Large” value [4, 14]?
**A.** The value was 90.

**Q.** And the “Plant response rating, Crabgrass, Large” value [4, 15]?
**A.** Its value is 50.

**Q.** And the “Plant response rating, Crabgrass, Large” value [4, 16]?
**A.** The value was 100.

**Q.** And the “Morningglory plant response rating” value [5, 13]?
**A.** Its value is 20.

**Q.** What about the “Plant response rating, Morningglory” value [5, 14] of the same compound?
**A.** The value was 80.

**Q.** What about the “Plant response rating, Morningglory” value [5, 15] of the same compound?
**A.** Its value is 0.

**Q.** What about the “Plant response rating, Morningglory” value [5, 16] of the same compound?
**A.** Its value is 10.

**Q.** What about the “Pigweed plant response rating” value [6, 13] of the same compound?
**A.** Its value is 100.

**Q.** What about the “Plant response rating, Pigweed” value [6, 14] of the same compound?
**A.** The value was 100.

**Q.** And the “Plant response rating, Pigweed” value [6, 15]?
**A.** Its value is 90.

**Q.** What about the “Plant response rating, Pigweed” value [6, 16] of the same compound?
**A.** Its value is 100.

**Q.** What about the “Wheat plant response rating” value [7, 13] of the same compound?
**A.** The value was 0.

**Q.** And the “Plant response rating, Wheat” value [7, 14]?
**A.** Its value is 0.

**Q.** What about the “Plant response rating, Wheat” value [7, 15] of the same compound?
**A.** Its value is 0.

**Q.** What about the “Plant response rating, Wheat” value [7, 16] of the same compound?
**A.** The value was 0.

**Q.** And the “Velvetleaf plant response rating” value [8, 13]?
**A.** Its value is 100.

**Q.** What about the “Plant response rating, Velvetleaf” value [8, 14] of the same compound?
**A.** The value was 100.

**Q.** And the “Plant response rating, Velvetleaf” value [8, 15]?
**A.** The value was 60.

**Q.** And the “Plant response rating, Velvetleaf” value [8, 16]?
**A.** The value was 100.

**Q.** What about the “Plant response rating, Flood, Barnyardgrass” value [9] of the same compound?
**A.** The value was 20.

**Q.** And the “Plant response rating, Barnyardgrass” value [9, 17]?
**A.** The value was 20.

**Q.** And the “Plant response rating, Flood, Sedge, Umbrella” value [10]?
**A.** Its value is 80.

**Q.** What about the “Plant response rating, Sedge, Umbrella” value [10, 17] of the same compound?
**A.** Its value is 30.

**Q.** What about the “Plant response rating, Flood, Rice” value [11] of the same compound?
**A.** Its value is 40.

**Q.** What about the “Plant response rating, Rice” value [11, 17] of the same compound?
**A.** Its value is 0.

**Q.** And the “Plant response rating, Flood, Ducksalad” value [12]?
**A.** Its value is 80.

**Q.** And the “Plant response rating, Ducksalad” value [12, 17]?
**A.** The value was 70.

**Q.** Which results are given for `CCCn1c(-c2cc(F)cc(F)c2)ncc(C(=O)C2=C(O)CC(C)(C)CC2=O)c1=O` [Compound 224]?
**A.** Plant response rating, Barnyardgrass [1, 18]: 90; Barnyardgrass plant response rating [1, 19]: 90; Plant response rating, Barnyardgrass [1, 15]: 0; Plant response rating, Barnyardgrass [1, 20]: 90; Plant response rating, Corn [2, 18]: 10; Corn plant response rating [2, 19]: 50; Plant response rating, Corn [2, 15]: 20; Plant response rating, Corn [2, 20]: 20; Plant response rating, Foxtail, Giant [3, 18]: 70; Foxtail, Giant plant response rating [3, 19]: 100; Plant response rating, Foxtail, Giant [3, 15]: 20; Plant response rating, Foxtail, Giant [3, 20]: 70; Plant response rating, Crabgrass, Large [4, 18]: 70; Crabgrass, Large plant response rating [4, 19]: 100; Plant response rating, Crabgrass, Large [4, 15]: 70; Plant response rating, Crabgrass, Large [4, 20]: 100; Plant response rating, Morningglory [5, 18]: 100; Morningglory plant response rating [5, 19]: 100; Plant response rating, Morningglory [5, 20]: 30; Plant response rating, Pigweed [6, 18]: 100; Pigweed plant response rating [6, 19]: 100; Plant response rating, Pigweed [6, 15]: 70; Plant response rating, Pigweed [6, 20]: 100; Plant response rating, Wheat [7, 18]: 0; Wheat plant response rating [7, 19]: 60; Plant response rating, Wheat [7, 15]: 0; Plant response rating, Wheat [7, 20]: 30; Plant response rating, Velvetleaf [8, 18]: 100; Velvetleaf plant response rating [8, 19]: 100; Plant response rating, Velvetleaf [8, 15]: 50; Plant response rating, Velvetleaf [8, 20]: 80; Plant response rating, Flood, Barnyardgrass [9]: 30; Plant response rating, Barnyardgrass [9, 21]: 0; Plant response rating, Barnyardgrass [9, 22]: 0; Barnyardgrass plant response rating [9, 23]: 0; Plant response rating, Flood, Sedge, Umbrella [10]: 75; Plant response rating, Sedge, Umbrella [10, 21]: 0; Plant response rating, Sedge, Umbrella [10, 22]: 0; Sedge, Umbrella plant response rating [10, 23]: 0; Plant response rating, Flood, Rice [11]: 60; Plant response rating, Rice [11, 21]: 0; Plant response rating, Rice [11, 22]: 0; Rice plant response rating [11, 23]: 0; Plant response rating, Flood, Ducksalad [12]: 75; Plant response rating, Ducksalad [12, 21]: 0; Plant response rating, Ducksalad [12, 22]: 0; Ducksalad plant response rating [12, 23]: 0
